Measured values as given in ChEMBL document CHEMBL1139567, “Synthesis and biological evaluation of sulfonamidooxazoles and beta-keto sulfones: selective inhibitors of 11beta-hydroxysteroid dehydrogenase type I” (Bioorg Med Chem Lett, 2005).

How the values were obtained:
[1] = molecular target: T1, 11-beta-hydroxysteroid dehydrogenase type 2 (Homo sapiens, UniProt P80365); assay: Inhibitory concentration against human 11-beta-hydroxysteroid dehydrogenase 2
T1 sequence (P80365 whole entry): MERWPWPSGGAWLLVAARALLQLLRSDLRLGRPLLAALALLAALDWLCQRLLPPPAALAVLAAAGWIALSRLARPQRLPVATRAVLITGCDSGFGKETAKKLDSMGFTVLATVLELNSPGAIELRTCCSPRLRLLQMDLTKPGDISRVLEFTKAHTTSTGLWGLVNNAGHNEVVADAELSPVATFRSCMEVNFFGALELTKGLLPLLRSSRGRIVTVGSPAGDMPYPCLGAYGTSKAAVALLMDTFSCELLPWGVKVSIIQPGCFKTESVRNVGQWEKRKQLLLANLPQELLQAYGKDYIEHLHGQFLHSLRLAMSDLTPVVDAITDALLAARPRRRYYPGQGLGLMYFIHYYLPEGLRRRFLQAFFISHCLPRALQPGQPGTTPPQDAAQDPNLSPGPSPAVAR

[2] = molecular target: 11-beta-hydroxysteroid dehydrogenase 1 (Homo sapiens, UniProt P28845); assay: Inhibitory concentration against human 11-beta-hydroxysteroid dehydrogenase 1
11-beta-hydroxysteroid dehydrogenase 1, sequence (P28845 whole entry): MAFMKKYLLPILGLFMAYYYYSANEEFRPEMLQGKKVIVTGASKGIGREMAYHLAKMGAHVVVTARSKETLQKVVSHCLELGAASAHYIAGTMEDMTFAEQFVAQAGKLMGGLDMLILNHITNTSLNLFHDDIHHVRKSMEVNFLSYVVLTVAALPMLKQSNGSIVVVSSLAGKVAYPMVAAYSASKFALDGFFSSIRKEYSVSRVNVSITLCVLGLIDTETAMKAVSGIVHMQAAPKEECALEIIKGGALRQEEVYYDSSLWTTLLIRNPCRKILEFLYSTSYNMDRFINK

IC50 [1] [µM]	IC50 [2] [µM]	Compound
> 200	2.3	O=S(=O)(Nc1nc(-c2ccc(-c3ccccc3)cc2)co1)c1ccccc1
	58.7	Cc1coc(NS(=O)(=O)c2cccc(Cl)c2C)n1
> 200	17.3	Cc1c(Cl)cccc1S(=O)(=O)Nc1nc(-c2ccccc2)co1
> 200	23	O=S(=O)(Nc1nc(-c2ccccc2)co1)c1ccccc1
> 200	48	Cc1c(Cl)cccc1S(=O)(=O)Nc1nc(-c2ccc(C#N)cc2)co1
> 200	9	O=S(=O)(Nc1nc(-c2ccc(C(F)(F)F)cc2)co1)c1ccccc1

The remaining lines, values behind:

Compound	IC50 [1] [µM]	IC50 [2] [µM]
O=C(CS(=O)(=O)c1ccccc1)c1ccc(C(F)(F)F)cc1	> 200	0.19
CC(=O)N(C)c1ccc(S(=O)(=O)Nc2nc(C)c(C)o2)cc1	> 200	100
CCN(CC)C(=O)Cc1csc(NS(=O)(=O)c2cccc(Cl)c2C)n1	> 200	1.5
Cc1coc(NS(=O)(=O)c2cccc(Cl)c2CC(=O)O)n1		> 100
COC(=O)Cc1c(Cl)cccc1S(=O)(=O)Nc1nc(C)co1		> 100
